Laboratory results published in patent publication US9732087B2, “Diamino-pyridine, pyrimidine, and pyridazine modulators of the histamine H4 receptor” (JANSSEN PHARMACEUTICA NV, priority 2008, dated 2017).

The compounds below were run against human H4 receptor (Homo sapiens (Human), UniProt Q9H3N8) (assay: Binding assay on recombinant human histamine H4 receptor ([3H]histamine competition, SK-N-MC cell membranes)). Conditions: membranes harvested with 96 well Brandel system; [3H]histamine 10 nM; average of results; read-out: Brandel Ki.
Description: Binding Assay on Recombinant Human Histamine H4Receptor
Cell pellets from SK-N-MC cells stably or transiently transfected with human H4 receptor (NCBI accession No. AF312230) were used for the binding assays. Cell pellets were homogenized in 50 mM Tris/5 mM EDTA buffer and supernatants from an 800 g spin were collected and recentrifuged at 30,000 g for 30 min. Pellets were rehomogenized in 50 mM Tris/5 mM EDTA buffer. […] Membranes were harvested by rapid filtration using the 96 well Brandel system (Table 1, Brandel) or a cell harvester (Table 1, Cell Harvester) using a Whatman GF/C filter or filter plates treated with 0.5% polyethylenimine (PEI), and washed 4 times with ice-cold 50 mM Tris/5 mM EDTA buffer. Filters were then dried, mixed with scintillant and radioactive counts were determined. […] Where activity is shown as greater than (>) a particular value, the value is the highest concentration tested.

| Ki [µM] | SMILES |
| --- | --- |
| 0.0689 | CC(C)Nc1nccc(N2CC(N)C2)n1 [Example 90, 4-(3-Aminoazetidin-1-yl)-N-(1-methylethyl)pyrimidin-2-amine] |
| 0.001 | CN[C@@H]1CCN(c2ccnc(N[C@H]3C[C@H]4C[C@@H]([C@@H]3C)C4(C)C)c2)C1 [Example 9, 4-[(3R)-3-(Methylamino)pyrrolidin-1-yl]-N-[(1S,2S,3S,5R)-2,6,6-trimethylbicyclo[3.1.1]hept-3-yl]pyridin-2-amine] |
| 0.0059 | CN[C@@H]1CCN(c2cnnc(N[C@H]3C[C@H]4C[C@@H]([C@@H]3C)C4(C)C)c2)C1 [Example 97, 5-[(3R)-3-(Methylamino)pyrrolidin-1-yl]-N-[(1S,2S,3S,5R)-2,6,6-trimethylbicyclo[3.1.1]hept-3-yl]pyridazin-3-amine] |

More lines, now with the values behind:

| SMILES | Ki [µM] |
| --- | --- |
| CN[C@@H]1CCN(c2ccnc(N[C@@H]3C[C@@H]4C[C@H]([C@H]3C)C4(C)C)c2)C1 [Example 10, 4-[(3R)-3-(Methylamino)pyrrolidin-1-yl]-N-[(1R,2R,3R,5S)-2,6,6-trimethylbicyclo[3.1.1]hept-3-yl]pyridin-2-amine] | 0.0005 |
| CN[C@@H]1CCN(c2cnnc(NCC3CC3)c2)C1 [Example 99, N-(Cyclopropylmethyl)-5-[(3R)-3-(methylamino)pyrrolidin-1-yl]pyridazin-3-amine] | 0.0239 |

Same assay, conditions: membranes harvested with cell harvester; [3H]histamine 10 nM; average of results; read-out: Cell Harvester Ki

| Ki [µM] | SMILES |
| --- | --- |
| 0.276 | CC(C)(O)CNc1cc(N2CC[C@@H](N)C2)ccn1 [Example 279, 1-({4-[(3R)-3-Aminopyrrolidin-1-yl]pyridin-2-yl}amino)-2-methylpropan-2-ol] |
| 0.00168 | CN[C@@H]1CCN(c2ccnc(NCC3CCCCC3)c2)C1 [Example 211, N-(Cyclohexylmethyl)-4-[(3R)-3-(methylamino)pyrrolidin-1-yl]pyridin-2-amine] |
| 0.0021 | CC1(C)[C@@H]2CC[C@@]1(C)[C@@H](Nc1nccc(N3C[C@H]4CCN[C@H]4C3)n1)C2 [Example 125, 4-[(3aR,6aR)-Hexahydropyrrolo[3,4-b]pyrrol-5(1H)-yl]-N-[(1R,2S,4R)-1,7,7-trimethylbicyclo[2.2.1]hept-2-yl]pyrimidin-2-amine] |
| 0.626 | C[C@@H](Nc1cc(N2CC[C@@H](N)C2)cnn1)c1ccccc1 [Example 321, 5-[(3R)-3-Aminopyrrolidin-1-yl]-N-[(1R)-1-phenylethyl]pyridazin-3-amine] |
| 0.0235 | CN[C@@H]1CCN(c2ccnc(NC3CC3)n2)C1 [Example 80, Cyclopropyl-[4-(3R)-(3-methylamino-pyrrolidin-1-yl)-pyrimidin-2-yl]-amine] |
| 0.278 | Cc1ccc(CNc2nccc(N3CCN(C)CC3)n2)cc1 [Example 163] |
| 0.106 | CC(C)Nc1nccc(N2CC(N)C2)n1 [Example 90, 4-(3-Aminoazetidin-1-yl)-N-(1-methylethyl)pyrimidin-2-amine] |
| 0.143 | CN[C@H]1CCN(c2cnnc(N[C@H](C)C3CCCCC3)c2)C1 [Example 373, N-[(1R)-1-Cyclohexylethyl]-5-[(3S)-3-(methylamino)pyrrolidin-1-yl]pyridazin-3-amine] |
| 0.0696 | CN[C@H]1CCN(c2ccnc(NC3C4CC5CC(C4)CC3C5)c2)C1 (stereo partly drawn) [Example 215, Adamantan-2-yl-[4-(3S)-(3-methylamino-pyrrolidin-1-yl)-pyridin-2-yl]-amine] |
| 0.347 | CN[C@@H]1CCN(c2cnnc(NCc3ccc(F)cc3)c2)C1 [Example 398, N-(4-Fluorobenzyl)-5-[(3R)-3-(methylamino)pyrrolidin-1-yl]pyridazin-3-amine] |
| 0.139 | CNC1CN(c2ccnc(N[C@H](C)C3CCCCC3)n2)C1 [Example 113, N-[(1R)-1-Cyclohexylethyl]-4-[3-(methylamino)azetidin-1-yl]pyrimidin-2-amine] |
| 0.0004 | CN[C@@H]1CCN(c2ccnc(N[C@H]3C[C@H]4C[C@@H]([C@@H]3C)C4(C)C)c2)C1 [Example 9, 4-[(3R)-3-(Methylamino)pyrrolidin-1-yl]-N-[(1S,2S,3S,5R)-2,6,6-trimethylbicyclo[3.1.1]hept-3-yl]pyridin-2-amine] |
| 0.0059 | CN[C@@H]1CCN(c2cnnc(N[C@H]3C[C@H]4C[C@@H]([C@@H]3C)C4(C)C)c2)C1 [Example 97, 5-[(3R)-3-(Methylamino)pyrrolidin-1-yl]-N-[(1S,2S,3S,5R)-2,6,6-trimethylbicyclo[3.1.1]hept-3-yl]pyridazin-3-amine] |
| > 10 | CN[C@H]1CCN(c2cnnc(NCCOC)c2)C1 [Example 376, N-(2-Methoxyethyl)-5-[(3S)-3-(methylamino)pyrrolidin-1-yl]pyridazin-3-amine] |
| > 10 | Cc1ccc(CNc2cc(N3CCNCC3)cnn2)cc1 [Example 344, N-(4-Methylbenzyl)-5-piperazin-1-ylpyridazin-3-amine] |
| > 10 | NC1CN(c2cnnc(NCC3CCCC3)c2)C1 [Example 358, 5-(3-Aminoazetidin-1yl)-N-(cyclopentylmethyl)pyridazin-3-amine] |
| 0.342 | CN1CCN(c2ccnc(NCc3ccc(F)cc3)n2)CC1 [Example 58, N-(4-Fluorobenzyl)-4-(4-methylpiperazin-1-yl)pyrimidin-2-amine] |

Continued, compound first:

| SMILES | Ki [µM] |
| --- | --- |
| N[C@@H]1CCN(c2ccnc(NC3CCCC3)c2)C1 [Example 292, 4-[(3R)-3-Aminopyrrolidin-1-yl]-N-cyclopentylpyridin-2-amine] | 0.00701 |
| CC(C)(C)CNc1cc(N2C[C@H]3CCN[C@H]3C2)ccn1 [Example 293, N-(2,2-Dimethylpropyl)-4-[(3aR,6aR)-hexahydropyrrolo[3,4-b]pyrrol-5(1H)-yl]pyridin-2-amine] | 0.0609 |
| CN[C@H]1CCN(c2ccnc(NCC(C)(C)CO)n2)C1 [Example 158, 2,2-Dimethyl-3-({4-[(3S)-3-(methylamino)pyrrolidin-1-yl]pyrimidin-2-yl}amino)propan-1-ol] | 3.49 |
| CN(CCN)c1cnnc(NC2CC3CCC2C3)c1 (stereo not shown) [Example 302, N^5-(2-Amino-ethyl)-N^3-bicyclo[2.2.1]hept-2yl-N^5-methylpyridazine-3,5-diamine] | 0.0981 |
| CC(C)(O)CNc1nccc(N2CC[C@@H](N)C2)n1 [Example 27, 1-({4-[(3R)-3-Aminopyrrolidin-1-yl]pyrimidin-2-yl}amino)-2-methylpropan-2-ol] | 0.0677 |
| N[C@@H]1CCN(c2cnnc(NCc3ccccn3)c2)C1 [Example 337, 5-[(3R)-3-Aminopyrrolidin-1-yl]-N-(pyridin-2-ylmethyl)pyridazin-3-amine] | > 10 |
| c1cc(N2CCNCC2)cc(NCC2CCCC2)n1 [Example 311, N-(Cyclopentylmethyl)-4-piperazin-1-ylpyridin-2-amine] | 0.226 |
| CN[C@@H]1CCN(c2ccnc(N[C@@H]3C[C@@H]4C[C@H]([C@H]3C)C4(C)C)c2)C1 [Example 10, 4-[(3R)-3-(Methylamino)pyrrolidin-1-yl]-N-[(1R,2R,3R,5S)-2,6,6-trimethylbicyclo[3.1.1]hept-3-yl]pyridin-2-amine] | 0.0005 |
| N[C@@H]1CCN(c2cnnc(NC3CCCC3)c2)C1 [Example 368, 5-[(3R)-3-Aminopyrrolidin-1-yl]-N-cyclopentylpyridazin-3-amine] | 0.29 |
| CN1CCN(c2ccnc(NC3CCC3)n2)CC1 [Example 54, N-Cyclobutyl-4-(4-methylpiperazin-1-yl)pyrimidin-2-amine] | 0.0879 |
| N[C@@H]1CCN(c2cnnc(NCc3ccccc3)c2)C1 [Example 340, 5-[(3R)-3-Aminopyrrolidin-1-yl]-N-benzylpyridazin-3-amine] | 2.03 |
| COc1ccc(CNc2nccc(N3CC[C@@H](N)C3)n2)cc1 [Example 185, 4-[(3R)-3-Aminopyrrolidin-1-yl]-N-(4-methoxybenzyl)pyrimidin-2-amine] | 1.73 |
| CN[C@H]1CCN(c2ccnc(NCCOC)c2)C1 [Example 238, N-(2-Methoxyethyl)-4-[(3S)-3-(methylamino)pyrrolidin-1-yl]pyridin-2-amine] | 0.555 |
| CN[C@@H]1CCN(c2cnnc(NCC3CC3)c2)C1 [Example 99, N-(Cyclopropylmethyl)-5-[(3R)-3-(methylamino)pyrrolidin-1-yl]pyridazin-3-amine] | 0.0239 |
| CN[C@@H]1CCN(c2ccnc(NCC3CCCCC3)n2)C1 [Example 191, N-(Cyclohexylmethyl)-4-[(3R)-3-(methylamino)pyrrolidin-1-yl]pyrimidin-2-amine] | 0.00358 |
| CNC1CN(c2ccnc(NC3CCCC3)n2)C1 [Example 172, N-Cyolopentyl-4-[3-(methylamino)azetidin-1-yl]pyrimidin-2-amine] | 0.0137 |
| c1cc(N2CCNCC2)nc(NC2CC2)n1 [Example 112, N-Cyclopropyl-4-piperazin-1-ylpyrimidin-2-amine] | 0.236 |
| CN1CCN(c2ccnc(NC3CCCC3)n2)CC1 [Example 48, N-Cyclopentyl-4-(4-methylpiperazin-1-yl)pyrimidin-2-amine] | 0.0267 |
| CC1(C)[C@@H]2CC[C@@]1(C)[C@@H](Nc1nccc(N3CC[C@@H](N)C3)n1)C2 [Example 127, 4-[(3R)-3-Aminopyrrolidin-1-yl]-N-[(1R,2S,4R)-1,7,7-trimethylbicyclo[2.2.1]hept-2-yl]pyrimidin-2-amine] | 0.00166 |
| CN1CCN(c2ccnc(NCC3CCCCC3)c2)CC1 [Example 212, N-(Cyclohexylmethyl)-4-(4-methylpiperazin-1-yl)pyridin-2-amine] | 0.275 |
| N[C@@H]1CCN(c2ccnc(NCCc3ccccc3)n2)C1 [Example 117, 4-[(3R)-3-Aminopyrrolidin-1-yl]-N-(2-phenylethyl)pyrimidin-2-amine] | 0.247 |
| N[C@@H]1CCN(c2ccnc(NC3CC4CCC3C4)n2)C1 (stereo partly drawn) [Example 43, 4-[(3R)-3-Aminopyrrolidin-1-yl]-N-[bicyclo[2.2.1]hept-2-yl]pyrimidin-2-amine] | 0.0033 |
| CNC1CN(c2ccnc(NCc3ccc(F)cc3)n2)C1 [Example 178, N-(4-Fluorobenzyl)-4-[3-(methylamino)azetidin-1-yl]pyrimidin-2-amine] | 0.243 |
| NC1CN(c2ccnc(NC3CCCC3)n2)C1 [Example 85, 4-(3-Aminoazetidin-1-yl)-N-cyclopentylpyrimidin-2-amine] | 0.0182 |
| OCCCNc1nccc(N2CCNCC2)n1 [Example 137, 3-[(4-Piperazin-1-ylpyrimidin-2-yl)amino]propan-1-ol] | 1.38 |
| CN[C@H]1CCN(c2ccnc(NCCc3ccccc3)c2)C1 [Example 245, 4-[(3S)-3-(Methylamino)pyrrolidin-1-yl]-N-(2-phenylethyl)pyridin-2-amine] | 0.228 |
| C[C@@H](Nc1nccc(N2C[C@H]3CCN[C@H]3C2)n1)C1CCCCC1 [Example 115, N-[(1R)-1-Cyclohexylethyl]-4-[(3aR,6aR)-hexahydropyrrolo[3,4-b]pyrrol-5(1H)-yl]pyrimidin-2-amine] | 0.932 |
